In brackets after ≈: the same amount, converted by molar mass. Residues, ends and D or L forms follow the SMILES beside them.
Assays:
[1] = test system: Mycobacterium tuberculosis; assay: Antimycobacterial activity against Mycobacterium tuberculosis H37Rv incubated for 6 days under shaking condition by resazurin dye based fluorescence assay; type: functional; settings: 144 h
HepG2 = assay: Cytotoxicity against human HepG2 cells after 48 hrs by CellTiter-Glo luminescence assay; type: cell-based; settings: HepG2, 48 h
[2] = Intrinsic clearance in mouse liver microsomes; type: ADME, microsome
[3] = Intrinsic clearance in human liver microsomes; type: ADME, microsome
[4] = Kinetic aqueous solubility of the compound by charged aerosol detection method; type: physicochemical; settings: buffer; read-out: Kinetic_solubility
[5] = Permeability of the compound by PAMPA; type: ADME; settings: read-out: permeability
[6] = Kinetic aqueous solubility of the compound at pH 7.4 phosphate buffered saline after 1 hr by CLND method; type: physicochemical; settings: read-out: Kinetic_solubility
[7] = test system: Mycobacterium tuberculosis; assay: Antimycobacterial activity against Mycobacterium tuberculosis H37Rv infected in human THP1 cells treated prior to infection measured after 4 days by luciferase reporter gene assay; type: functional, organism-based; settings: THP-1, 96 h
Mus musculus [8] = assay: Dose normalized AUC (0 to 6 hrs) in C57BL/6J mouse at 5 mg/kg, ip; type: ADME, organism-based; settings: in vivo
[9] = Intrinsic clearance in human liver microsomes at […] pretreated for 45 mins followed by NADPH addition by LC-MS/MS analysis; type: ADME, microsome
Mus musculus [10] = assay: Dose normalized AUC (0 to 6 hrs) in C57BL/6J mouse at 25 mg/kg, ip; type: ADME, organism-based; settings: in vivo
[11] = AUC (0 to 6 hrs) in C57BL/6J mouse at 5 mg/kg, ip; type: ADME, organism-based; set-up: dose 5 mg/kg, time < 6 hr, route intraperitoneal; settings: in vivo
[12] = Permeability of the compound at pH 7.4 at […] incubated for 3 hrs under shaking condition by HPLC method; type: ADME; settings: not told, read-out: permeability
[13] = AUC (0 to 6 hrs) in C57BL/6J mouse at 25 mg/kg, ip; type: ADME, organism-based; set-up: dose 25 mg/kg, time < 6 hr, route intraperitoneal; settings: in vivo
[14] = test system: Mycobacterium tuberculosis; assay: Antimycobacterial activity against Mycobacterium tuberculosis H37Rv infected in C57BL/6J mouse assessed as log10 CFU reduction in bacterial lung count at 5 mg/kg, ip administered once daily for 8 days measured post last dose relative to control; type: functional
Mus musculus [15] = assay: Toxicity in C57BL/6J mouse assessed as body weight loss at 25 mg/kg, ip after 24 hrs by Irwin test; type: organism-based; settings: in vivo
[16] = Cmax in C57BL/6J mouse at 5 mg/kg, ip; type: ADME, organism-based; set-up: dose 5 mg/kg, route intraperitoneal; settings: in vivo
[17] = Cmax in C57BL/6J mouse at 25 mg/kg, ip; type: ADME, organism-based; set-up: dose 25 mg/kg, route intraperitoneal; settings: in vivo
Mus musculus [18] = assay: Toxicity in C57BL/6J mouse assessed as behavioral changes at 5 to 25 mg/kg, ip by Irwin test; type: organism-based; settings: in vivo
[19] = Kinetic aqueous solubility of the compound by CLND method; type: physicochemical; settings: buffer; read-out: Kinetic_solubility
[20] = Intrinsic clearance in mouse liver microsomes at […] pretreated for 45 mins followed by NADPH addition by LC-MS/MS analysis; type: ADME, microsome
[21] = test system: Mycobacterium tuberculosis; assay: Antimycobacterial activity against Mycobacterium tuberculosis H37Rv infected in C57BL/6J mouse assessed as log10 CFU reduction in bacterial lung count at 30 mg/kg, po administered once daily for 8 days measured post last dose relative to control; type: functional

Compound | MIC [1] | IC50 (HepG2) | CLH [2] | CLH [3] | solubility kinetic [4] | Papp [5] | solubility kinetic at 1 h [6] | IC50 [7] | CLH [9] | further results
CC(C)C[C@@H]1NC(=O)[C@H](Cc2c[nH]c3ccccc23)NC(=O)[C@@H](CCCN)NC(=O)[C@H](CC(=O)NC2CCCCC2)NC(=O)[C@H](C(C)C)NC(=O)[C@@H](CC(C)C)NC1=O | 5 µM (≈ 4.11 µg/mL) | 50.1 µM |  |  |  |  |  |  |  | 
CC(C)C[C@@H]1NC(=O)[C@H](Cc2c[nH]c3ccccc23)NC(=O)[C@@H](CCCN)NC(=O)[C@H](CC(=O)N2CCCCC2)NC(=O)[C@H](C(C)C)NC(=O)[C@@H](CC(C)C)NC1=O | 20 µM (≈ 16.2 µg/mL) | > 100 µM | < 0.48 mL/min/g | 1.9 mL/min/g | 107 µM (≈ 86.5 µg/mL) | < 10 nm/s |  |  |  | 
CC[C@H](C)[C@@H]1NC(=O)[C@@H](CC(C)C)NC(=O)[C@H](CC(C)C)NC(=O)[C@H](Cc2c[nH]c3ccccc23)NC(=O)[C@@H](CCCN)NC(=O)[C@H](CC(N)=O)NC1=O | 1.1 µM (≈ 0.829 µg/mL) | 50.1 µM | < 0.48 mL/min/g |  |  |  | > 235 µM | 0.8 µM | 1.87 mL/min/g | AUC/dose (Mus musculus [8]): 957 ng·h/mL/mg/kg; AUC/dose (Mus musculus [10]): 1063.8 ng·h/mL/mg/kg; AUC(0-t) at 6 h [11]: 4.79 µg·h/mL; Papp at 3 h [12]: < 10 nm/s; AUC(0-t) at 6 h [13]: 26.6 µg·h/mL; FC [14]: -0.2; Activity (Mus musculus [15]): 10%; Cmax [16]: 2.17 µg/mL; Cmax [17]: 6.33 µg/mL; Activity (Mus musculus [18]): Non-Toxic
CC(C)C[C@@H]1NC(=O)[C@H](Cc2c[nH]c3ccccc23)NC(=O)[C@@H](CCCN)NC(=O)[C@H](CC(=O)NCc2ccccc2)NC(=O)[C@H](C(C)C)NC(=O)[C@@H](CC(C)C)NC1=O | 10 µM (≈ 8.3 µg/mL) | 39.8 µM | 0.73 mL/min/g | 0.88 mL/min/g | > 353 µM | < 10 nm/s |  |  |  | 
CC[C@@H](C)[C@@H]1NC(=O)[C@@H](CC(C)C)NC(=O)[C@H](CC(C)C)NC(=O)[C@H](Cc2c[nH]c3ccccc23)NC(=O)[C@@H](CCCN)NC(=O)[C@H](CC(N)=O)NC1=O | 1.1 µM (≈ 0.829 µg/mL) | 50.1 µM | < 0.48 mL/min/g | 0.87 mL/min/g |  | < 10 nm/s |  | 0.8 µM |  | solubility kinetic [19]: 177 µM (≈ 133 µg/mL)
CCCCNC(=O)C[C@@H]1NC(=O)[C@H](C(C)C)NC(=O)[C@@H](CC(C)C)NC(=O)[C@H](CC(C)C)NC(=O)[C@H](Cc2c[nH]c3ccccc23)NC(=O)[C@@H](CCCN)NC1=O | 10 µM (≈ 7.96 µg/mL) | 63.1 µM | 1.19 mL/min/g | 1.69 mL/min/g | 146 µM (≈ 116 µg/mL) | < 10 nm/s |  |  |  | 
CC(C)C[C@@H]1NC(=O)[C@H](Cc2c[nH]c3ccccc23)NC(=O)[C@@H](CCCN)NC(=O)[C@H](CC(=O)N2CCC(Oc3ccc(OC(F)(F)F)cc3)CC2)NC(=O)[C@H](C(C)C)NC(=O)[C@@H](CC(C)C)NC1=O | > 80 µM | 31.6 µM | < 0.48 mL/min/g | 0.4 mL/min/g |  | 87 nm/s | 20 µM (≈ 19.7 µg/mL) |  |  | 
CC[C@H](C)[C@@H]1NC(=O)[C@@H](CC(C)C)NC(=O)[C@H](CC(C)C)NC(=O)[C@H](Cc2c[nH]c3ccccc23)NC(=O)[C@@H](CCCNC(=N)N)NC(=O)[C@H](CC(N)=O)NC1=O (HELM PEPTIDE1{I.N.[dR].W.L.[dL]}$PEPTIDE1,PEPTIDE1,1:R1-6:R2$$$V2.0) | 0.6 µM (≈ 0.478 µg/mL) | 50.1 µM |  |  |  |  | > 238 µM | 0.2 µM | 7.44 mL/min/g | AUC/dose (Mus musculus [8]): 1258.6 ng·h/mL/mg/kg; AUC/dose (Mus musculus [10]): 586.1 ng·h/mL/mg/kg; CLH [20]: 1.01 mL/min/g; AUC(0-t) at 6 h [11]: 6.29 µg·h/mL; AUC(0-t) at 6 h [13]: 14.7 µg·h/mL; FC [14]: -0.2; Activity (Mus musculus [15]): 10%; Cmax [16]: 1.47 µg/mL; Cmax [17]: 3.26 µg/mL; Activity (Mus musculus [18]): Non-Toxic
CC(C)C[C@@H]1NC(=O)[C@H](Cc2c[nH]c3ccccc23)NC(=O)[C@@H](CCCN)NC(=O)[C@H](CC(N)=O)NC(=O)[C@H](C(C)C)NC(=O)[C@@H](CC(C)C)NC1=O (HELM PEPTIDE1{[NCCC[C@@H](N[*:1])C(=O)[*:2]].W.L.[dL].V.N}$PEPTIDE1,PEPTIDE1,1:R1-6:R2$$$V2.0) | 0.6 µM (≈ 0.444 µg/mL) | 50.1 µM |  |  |  |  | 204 µM (≈ 151 µg/mL) | 1.26 µM | 0.97 mL/min/g | CLH [20]: < 0.5 mL/min/g; Papp at 3 h [12]: < 6.5 nm/s
COc1c(N2C[C@@H]3CCCN[C@@H]3C2)c(F)cc2c(=O)c(C(=O)O)cn(C3CC3)c12 [MOXIFLOXACIN] |  |  |  |  |  |  |  |  |  | FC [21]: 3.4

Source: ChEMBL document CHEMBL4229459, “An efficient synthetic route for preparation of antimycobacterial wollamides and evaluation of their in vitro and in vivo efficacy” (Bioorg Med Chem Lett, 2018)
